Consider 2 molecules from US20240174624A1, “CHIRAL N-(1,3,4-OXADIAZOLE-2-YL)PHENYL CARBOXYLIC ACID AMIDES AND THEIR USE AS HERBICIDES” (Bayer Aktiengesellschaft, priority 2021, published 2024).

The subject of test [1] is LOLRI. As to the kind of experiment: Post-emergence herbicidal action. In kind it is in vivo, Lolium rigidum. The note with it: 20 g a.i./ha, comparative experiment. Here is the method: (§1) Seeds of monocotyledonous and dicotyledonous weed and crop plants are laid out in sandy loam soil in wood-fibre pots, covered with soil and cultivated in a greenhouse under good growth conditions. 2 to 3 weeks after sowing, the test plants are treated at the one-leaf stage. The compounds of the invention, formulated in the form of wettable powders (WP) or as emulsion concentrates (EC), are then sprayed onto the green parts of the plants in the form of an aqueous suspension or emulsion at a water application rate equating to 600 to 800 l/ha, with addition of 0.2% wetting agent. After the test plants have been left to stand in the greenhouse under optimal growth conditions for about 3 weeks, the action of the preparations is assessed visually in comparison to untreated controls (herbicidal action in percent (%): 100% activity=the plants have died, 0% activity=like control plants). […] The tables below illustrate, in an illustrative manner, the post-emergence herbicidal action of the compounds of the invention, the herbicidal activity being stated in percent. In the experiments that follow, the herbicidal action of the compounds of the invention and that of the corresponding known racemic compounds closest from WO2012126932 and WO2018202535 were compared under the above-specified conditions by the pre-emergence and post-emergence method. […]

In test [2] the test system is ALOMY. Nature of the test: Pre-emergence herbicidal action. The test is classed as in vivo, Alopecurus myosuroides. Particulars: 20 g a.i./ha, comparative experiment. The text has this: (§2) Seeds of monocotyledonous and dicotyledonous weed plants and crop plants are laid out in sandy loam soil in wood-fibre pots and covered with soil. The compounds of the invention, formulated in the form of wettable powders (WP) or as emulsion concentrates (EC), are then applied to the surface of the covering soil in the form of an aqueous suspension or emulsion at a water application rate equivalent to 600 to 800 l/ha, with addition of 0.2% wetting agent. After the treatment, the pots are placed in a greenhouse and kept under good growth conditions for the trial plants. The damage to the test plants is scored visually after a test period of 3 weeks by comparison with untreated controls (herbicidal activity in percent (%): 100% activity=the plants have died, 0% activity=like control plants). […] The tables below illustrate, in an illustrative manner, the post-emergence herbicidal action of the compounds of the invention, the herbicidal activity being stated in percent. In the experiments that follow, the herbicidal action of the compounds of the invention and that of the corresponding known racemic compounds closest from WO2012126932 and WO2018202535 were compared under the above-specified conditions by the pre-emergence and post-emergence method. The example numbers given in the tables relate to the compounds disclosed in the respective documents.

For test [3], the system named is ZEAMX. As to the kind of experiment: Post-emergence damage to crop plants. The test is classed as in vivo, Zea mays. The note with it: comparative experiment. Here is the method:
(§3) Seeds of monocotyledonous and dicotyledonous weed and crop plants are laid out in sandy loam soil in wood-fibre pots, covered with soil and cultivated in a greenhouse under good growth conditions. 2 to 3 weeks after sowing, the test plants are treated at the one-leaf stage. The compounds of the invention, formulated in the form of wettable powders (WP) or as emulsion concentrates (EC), are then sprayed onto the green parts of the plants in the form of an aqueous suspension or emulsion at a water application rate equating to 600 to 800 l/ha, with addition of 0.2% wetting agent. After the test plants have been left to stand in the greenhouse under optimal growth conditions for about 3 weeks, the action of the preparations is assessed visually in comparison to untreated controls (herbicidal action in percent (%): 100% activity=the plants have died, 0% activity=like control plants). […] The tables below illustrate, in an illustrative manner, the post-emergence herbicidal action of the compounds of the invention, the herbicidal activity being stated in percent. In the experiments that follow, the herbicidal action of the compounds of the invention and that of the corresponding known racemic compounds closest from WO2012126932 and WO2018202535 were compared under the above-specified conditions by the pre-emergence and post-emergence method. The example numbers given in the tables relate to the compounds disclosed in the respective documents.

For test [4], the system named is GLXMA. As to the kind of experiment: Pre-emergence damage to crop plants. The test is classed as in vivo, Glycine max. Particulars: comparative experiment.
From the text: as §2

Test [5] has as its system VERPE. As to the kind of experiment: Post-emergence herbicidal action. In kind it is in vivo, Veronica persica. Particulars: 5 g a.i./ha, comparative experiment. The protocol: as §3
For test [6], the system named is BRSNW. As to the kind of experiment: Post-emergence damage to crop plants. In kind it is in vivo, Brassica napus. Particulars: 20 g a.i./ha, comparative experiment. The protocol: as §1
In test [7] the test system is DIGSA. Nature of the test: Post-emergence herbicidal action. Particulars: 20 g a.i./ha, comparative experiment. The test is classed as in vivo, Digitaria sanguinalis. The protocol: as §3
The subject of test [8] is ZEAMX. Nature of the test: Pre-emergence damage to crop plants. Particulars: comparative experiment. In kind it is in vivo, Zea mays.
From the text: as §2

Test [9] deals with LOLRI. Nature of the test: Pre-emergence herbicidal action. Particulars: 20 g a.i./ha, comparative experiment. The test is classed as in vivo, Lolium rigidum.
From the text: as §2

Test [10] concerns AVEFA. Nature of the test: Pre-emergence herbicidal action. In kind it is in vivo, Avena fatua. Particulars: 20 g a.i./ha, comparative experiment.
From the text: as §2

Test [11] concerns TRZAS. Nature of the test: Post-emergence damage to crop plants. In kind it is in vivo, Triticum aestiva. The note with it: comparative experiment. Here is the method: as §3
Test [12] relates to TRZAS. As to the kind of experiment: Pre-emergence damage to crop plants. The test is classed as in vivo, Triticum aestiva. Particulars: 80 g a.i./ha, comparative experiment.
From the text: as §2

The subject of test [13] is ORYZA. As to the kind of experiment: Pre-emergence damage to crop plants. The test is classed as in vivo, Oryza sativa. The note with it: 80 g a.i./ha, comparative experiment.
From the text: as §2

The subject of test [14] is ORYZA. As to the kind of experiment: Post-emergence damage to crop plants. In kind it is in vivo, Oryza sativa. Particulars: 80 g a.i./ha, comparative experiment. The protocol: as §3

With `Cc1nnc(NC(=O)c2ccc(C(F)(F)F)c([S+]([O-])C3CC3)c2Cl)o1` (racemic) [Racemate known from WO2012126932, 2-chloro-N-(5-methyl-1,3,4-oxadiazol-2-yl)-3-[(rac)-cyclopropylsulfinyl]-4-(trifluoromethyl)benzamide, reference compound], the “Herbicidal action against LOLRI” value in test [1] is given as 30%; in [9], 0%. For the same molecule, in test [2], the “Herbicidal action against ALOMY” value amounted to 0%. For the same molecule, the results for the “Damage to ZEAMX” value in test [3] (20 g a.i./ha) and in test [8] (80 g a.i./ha) were 20% and 70%, respectively. Also, the “Damage to GLXMA” value was found to be 60% in test [4] (20 g a.i./ha) and 100% in [4] (80 g a.i./ha). The “Herbicidal action against VERPE” value in [5] turned out to be 40%. Also, the “Damage to BRSNW” value in test [6] was 100%. Also, in test [7], the “Herbicidal action against DIGSA” value was found to be 80%. Moreover, the “Herbicidal action against AVEFA” value in [10] is 0%. The “Damage to TRZAS” value in test [11] (20 g a.i./ha) amounted to 40%.

For `C[S+]([O-])c1c(C(F)(F)F)ccc(C(=O)Nc2nnco2)c1Cl` (racemic) [1-360, from WO2012126932, 2-chloro-N-(1,3,4-oxadiazol-2-yl)-3-[(rac)-methylsulfinyl]-4-(trifluoromethyl)benzamide, reference compound], the “Damage to TRZAS” value in test [12] turned out to be 80%; in test [11] (80 g a.i./ha) it was 100%. In addition, the “Damage to ORYZA” value in test [13] and in test [14] was 100% in each case. The “Damage to ZEAMX” value in test [3] (80 g a.i./ha) and in test [8] (320 g a.i./ha) was 20% in each case.
